{"source": "patent US9035133B2", "about": "“Herbicide-resistant sunflower plants and methods of use” (priority 2006, dated 2015)", "assay_type_in_all_cases": "in vivo, Helianthus annuus", "key": {"[1]": {"test_system": "MUT31 sunflower plants", "test": "Greenhouse factorial experiment, herbicide damage score (imazamox with or without malathion)", "conditions": "7 days after spraying", "description": "(§1) FIG. 1 is a graphical representation of the results of a 2×3×2 factorial experiment to the test the effects of sunflower genotype (RHA266 or MUT31), herbicide dose (0, 0.25X, and, 0.50X; where X=50 g a.i./ha imazamox), and malathion (0 or 1000 g a.i./ha). The sunflower plants were at the 3-4 leaf growth stage at time of malathion and herbicide spraying. Malathion was sprayed on the plants 30 minutes prior to the imazamox spraying. The sunflower plants were evaluated at 7 days after herbicide spraying to determine damage scores. Additional details are provided below in Example 3.\n(§2) To evaluate the detoxification ability of MUT31 sunflower plants, an experiment was conducted in the greenhouse. The objective of the experiment was to determine if the imazamox tolerance of MUT31 plants is associated with detoxification mechanism that is mediated by a P450 monooxygenase enzyme (referred to herein as “P450 enzyme”). […] Thus, plants comprising enhanced herbicide tolerance that is due to an altered P450 enzyme are expected to become less tolerant or susceptible to the herbicide when malthion is applied to the plants before they are treated with the herbicide.\n(§3) A factorial experiment with three factors: genotypes (MUT31 and RHA266), herbicide dose (Control, 0.25X , and 0.50X; where X=50 g ai/ha imazamox) and malathion (with or without malathion) was arranged in a randomized split-split plot block design. Imazamox (SWEEPER) was sprayed at the 3-4 leaf growth stage. The P450 inhibitor malathion was sprayed at a rate of 1000 g ai/ha 30 minutes prior to herbicide spraying."}, "[2]": {"test_system": "RHA266 sunflower plants", "test": "Greenhouse factorial experiment, herbicide damage score (imazamox with or without malathion)", "conditions": "7 days after spraying", "description": "as §1, §2, §3"}, "[3]": {"test_system": "sunflower Entry 1, IMI Restorer, A205V homo", "test": "Field trial, phytotoxicity rating (% crop injury)", "conditions": "21 DAT", "description": "(§4) A field trial was conducted to compare the herbicide tolerance of sunflower hybrids carrying the MUT31 trait and the A205V mutation in a sunflower AHASL gene (A205V/A205V). A sunflower AHASL gene with the A205V mutation encodes a AHASL protein which has a valine at amino acid that corresponds to amino acid position 205 in the Arabidopsis thaliana AHASL protein. The amino acid at the same position in a wild-type sunflower AHASL protein is alanine. In the amino acid sequence of the sunflower AHASL protein, this alanine-to-valine amino acid substitution is at amino acid position 190. By convention, the sites of amino acid substitutions that are known to give rise to herbicide resistance in plant AHASL proteins are typically referred to by the position of the substitution in the amino acid sequence of the Arabidopsis AHASL protein.\n(§5) Seed from each entry was produced under optimum seed production conditions in South America in 2005/2006. The field trial was conducted at one location in North Dakota, USA in 2006. The entries were organized in a randomized complete block using a split plot design consisting of 3 replications for each treatment combination. Factor A was the herbicide treatment, and factor B was the sunflower entry. The plot size was 4 rows×12 ft and the seeding rate was consistent with local agronomic practices. The spray volume was 10 gallons per acre (GPA) (or 100 liters/ha) for a backpack sprayer or 20 GPA (or 200 liters/ha) for a tractor mounted boom. The herbicide treatments were applied at the 2-4 leaf growth stage.\n(§6) Phytotoxicity ratings were assessed at 7 days and 21 days following herbicide application. Phytotoxicity was recorded as the amount of plant damage (in percent), where a rating of ‘0’ indicated no damage to the plants in the plot relative to the untreated plot. A rating of ‘100’ indicated complete necrosis (death) of the plants in the plot relative to the untreated plot.\n(§7) The data was subjected to an ANOVA analysis and the means from the 3 repetitions are presented in Table 8 (phytotoxicity at 21 days post-treatment)."}, "[4]": {"test_system": "sunflower Entry 2, IMI cms × IMI restorer, A205V homo", "test": "Field trial, phytotoxicity rating (% crop injury)", "conditions": "21 DAT", "description": "as §4, §5, §6, §7"}, "[5]": {"test_system": "sunflower Entry 3, WT × IMI restorer, A205V hetero", "test": "Field trial, phytotoxicity rating (% crop injury)", "conditions": "50 g ai/ha imazamox + 0.25% (v/v) NIS, 21 DAT", "description": "as §4, §5, §6, §7"}, "[6]": {"test_system": "sunflower Entry 5, A837 cms × IMI restorer, A205V hetero", "test": "Field trial, phytotoxicity rating (% crop injury)", "conditions": "50 g ai/ha imazamox + 0.25% (v/v) NIS, 21 DAT", "description": "as §4, §5, §6, §7"}, "[7]": {"test_system": "sunflower Entry 6, IMI cms × MUT31 restorer, A205V/MUT31 hetero", "test": "Field trial, phytotoxicity rating (% crop injury)", "conditions": "21 DAT", "description": "as §4, §5, §6, §7"}, "[8]": {"test_system": "sunflower Entry 8, MUT31 Restorer, MUT31 homo", "test": "Field trial, phytotoxicity rating (% crop injury)", "conditions": "21 DAT", "description": "as §4, §5, §6, §7"}, "[9]": {"test_system": "MUT31", "test": "Previous studies (data not shown), crop injury"}, "[10]": {"conditions": "0.25× imazamox (X=50 g ai/ha), malathion 1000 g ai/ha 30 minutes prior"}, "[11]": {"conditions": "0.25× imazamox (X=50 g ai/ha), no malathion"}, "[12]": {"conditions": "0.50× imazamox (X=50 g ai/ha), malathion 1000 g ai/ha 30 minutes prior"}, "[13]": {"conditions": "0.50× imazamox (X=50 g ai/ha), no malathion"}, "[14]": {"conditions": "100 g ai/ha imazamox + 0.25% (v/v) NIS"}, "[15]": {"conditions": "herbicide dose 0× (control), malathion 1000 g ai/ha alone"}, "[16]": {"conditions": "herbicide dose 0× (control), malathion 1000 g ai/ha alone, listed as Malathion"}, "[17]": {"conditions": "160 g ai/ha imazapyr + 0.25% (v/v) NIS"}}}
{"smiles": "COCc1cnc(C2=NC(C)(C(C)C)C(=O)N2)c(C(=O)O)c1", "note": "(stereo not drawn) [imazamox]", "values": [{"measurement": "Mean Herbicide Damage Score", "setting": "[1]; [10]", "result": 30.35, "unit": "%"}, {"measurement": "Mean Herbicide Damage Score", "setting": "[1]; [11]", "result": 9.50, "unit": "%"}, {"measurement": "Mean Herbicide Damage Score", "setting": "[1]; [12]", "result": 40.31, "unit": "%"}, {"measurement": "Mean Herbicide Damage Score", "setting": "[1]; [13]", "result": 20.13, "unit": "%"}, {"measurement": "Mean Herbicide Damage Score", "setting": "[2]; [10]", "result": 45.30, "unit": "%"}, {"measurement": "Mean Herbicide Damage Score", "setting": "[2]; [11]", "result": 27.95, "unit": "%"}, {"measurement": "Mean Herbicide Damage Score", "setting": "[2]; [12]", "result": 45.50, "unit": "%"}, {"measurement": "Mean Herbicide Damage Score", "setting": "[2]; [13]", "result": 42.35, "unit": "%"}, {"measurement": "Phytotoxicity Rating (% Crop Injury)", "setting": "[3]; [14]", "result": 6.67, "unit": "%"}, {"measurement": "Phytotoxicity Rating (% Crop Injury)", "setting": "[4]; [14]", "result": 3.33, "unit": "%"}, {"measurement": "Phytotoxicity Rating (% Crop Injury)", "setting": "[5]", "result": 6.67, "unit": "%"}, {"measurement": "Phytotoxicity Rating (% Crop Injury)", "setting": "[6]", "result": 3.33, "unit": "%"}, {"measurement": "Phytotoxicity Rating (% Crop Injury)", "setting": "[7]; 50 g ai/ha imazamox + 0.25% (v/v) NIS", "result": 1.67, "unit": "%"}, {"measurement": "Phytotoxicity Rating (% Crop Injury)", "setting": "[7]; 200 g ai/ha imazamox + 0.25% (v/v) NIS", "result": 43, "unit": "%"}, {"measurement": "Phytotoxicity Rating (% Crop Injury)", "setting": "[8]; 37.5 g ai/ha imazamox + 0.25% (v/v) NIS", "result": 47, "unit": "%"}, {"measurement": "crop injury", "setting": "[9]; 75 g ai of imazamox per hectare", "result": 100, "unit": "%"}]}
{"smiles": "CCOC(=O)CC(SP(=S)(OC)OC)C(=O)OCC", "note": "(stereo not drawn) [malathion, diethyl-dimethoxythiophosphorylthio-succinate]", "values": [{"measurement": "Mean Herbicide Damage Score", "setting": "[1]; [15]", "result": "no effect"}, {"measurement": "Mean Herbicide Damage Score", "setting": "[1]; [16]", "result": 0.00, "unit": "%"}, {"measurement": "Mean Herbicide Damage Score", "setting": "[2]; [15]", "result": "no effect"}, {"measurement": "Mean Herbicide Damage Score", "setting": "[2]; [16]", "result": 0.00, "unit": "%"}]}
{"smiles": "CC(C)C1(C)N=C(c2ncccc2C(=O)O)NC1=O", "note": "(stereo not drawn) [imazapyr]", "values": [{"measurement": "Phytotoxicity Rating (% Crop Injury)", "setting": "[3]; [17]", "result": 6.67, "unit": "%"}, {"measurement": "Phytotoxicity Rating (% Crop Injury)", "setting": "[4]; [17]", "result": 3.33, "unit": "%"}, {"measurement": "Phytotoxicity Rating (% Crop Injury)", "setting": "[8]; 80 g ai/ha imazapyr + 0.25% (v/v) NIS", "result": 88.33, "unit": "%"}, {"measurement": "crop injury", "setting": "[9]; 100 g ai of imazapyr per hectare", "result": 100, "unit": "%"}]}
